Test [1] relates to HCV replication, SGR-Neo-RLuc-JFH1-2A replicon cells established in Huh-7.5. Nature of the test: HCV replication in subgenomic replicon cells (Renilla luciferase). The class given is cell-based, Hepatitis C virus. As to conditions: Hepatitis C virus, Huh7.5; replicon cells, luciferase activity; read-out: IC50, inhibition of HCV replication. The text has this:
(§1) The compounds bind their cognate loops in the 3′ UTR with mid-nanomolar to low micromolar affinities (Table 1). It was next determined if the identified compounds could inhibit HCV RNA replication in HCV subgenomic replicon cells, in particular SGR-Neo-RLuc-JFH1-2A replicon cells established in Huh-7.5 (human hepatoma cells). In this system, an autonomously replicating viral RNA replicon is used to monitor efficiently RNA replication of the virus in the absence of spread of viral RNA to adjacent cells. This is achieved by replacing the structural proteins required to assembly progeny virions with a drug selectable marker (Neo) and a Renilla luciferase (RLuc) reporter gene. Once this replicon has been delivered to human hepatoma cells and selection with G418 (conferred by Neo selectable marker) has occurred, the expression and Renilla luciferase activity is directly correlated with the level of HCV replication^57.
They were therefore assayed for their ability to inhibit HCV replication using this replicon system, with DMSO vehicle and 2′-C-methyladenosine^17 triphosphate serving as negative and positive controls, respectively.
(§2) Effect of compounds on HCV replication. […] Cytotoxicity assays. […] Oligonucleotide profiling of target engagement in vitro. […] Primers can be found in Table 4. […] Inhibition of kinases. […] . Figure S7C).
(Replicon systems follow genome replication, usually without infectious particles.)

A further test has as its system RNA motif libraries A-E. Briefly: 2DCS: array-immobilized small molecules incubated with RNA motif libraries. In kind it is binding. To be noted: libraries C-E. The text has this: (§3) Identification of RNA-binding Small Molecules by 2DCS. […] We have previously validated the secondary structures formed by members of RNA libraries by enzymatic mapping^8, 12, 34. These discrete RNA motifs were selected because they are present in cellular RNAs. Due to the library-versus-library nature of these studies, they represent the largest screens completed to date, probing >52,000,000 interactions. Of the 1,987 compounds probed, 239 bound RNA (12.0%).
A final screen was then completed in which the 91 array-immobilized compounds were incubated with all five RNA motif libraries separately in the presence of oligonucleotide competitors F-J, d(AT)11 and d(GC)11. Oligonucleotides F-J mimic regions common to all library members, restricting binding to the randomized regions. (Note: oligonucleotide J was not used for hairpin selections.) After rigorous washing to remove unbound RNAs, bound RNAs were harvested and identified by RNA-seq. […]
Identification of Privileged RNA Space by RNA-Seq. […] RNA-seq data were then analyzed by High Throughput Structure-Activity Relationships Through Sequencing (HiT-StARTS)^12 to identify the privileged RNA motifs that bind each small molecule. […] Next, the most privileged RNA motif binders and the most discriminated against RNA motifs (non-binders) for each compound selection was analyzed by generating LOGOS from the highest and lowest 0.5% of Zobs scores^37. […]

In test [2] the test system is RNA library A (5-nucleotide hairpin library). Nature of the test: 2DCS selection with LOGOS analysis. The class given is binding. To be noted: 5-nucleotide hairpins.
From the text: as §3
A final screen was then completed in which the 91 array-immobilized compounds were incubated with all five RNA motif libraries separately in the presence of oligonucleotide competitors F-J, d(AT)11 and d(GC)11. Oligonucleotides F-J mimic regions common to all library members, restricting binding to the randomized regions. (Note: oligonucleotide J was not used for hairpin selections.) After rigorous washing to remove unbound RNAs, bound RNAs were harvested and identified by RNA-seq. By completing selections under conditions of high oligonucleotides stringency (by use of excess competitor oligonucleotides), these studies identified small molecules that bound RNA motifs avidly. A challenge in the small molecule RNA-targeting area has been the development and identification of selective interactions between small molecules and RNAs. In myriad studies, 2DCS has defined selective RNA motif-small molecule interactions with varied affinities^11, 12, 35, 36.
Identification of Privileged RNA Space by RNA-Seq. Using RNA-seq, a large sequencing dataset was obtained for each pool of RNAs that were specifically bound to each small molecule. RNA libraries A, B, C, D, and E had at least 12.1-fold (average: 133.1±111.8), 6.7-fold (average: 80.8±78.7), 9.9-fold (average: 103.5±110.6), 7.2-fold (average: 75.7±65.6), and 6.0-fold (average: 36.3±31.6) coverage for each small molecule selection, respectively, as compared to the number of unique sequences within the corresponding RNA library. It was previously shown that at least 6-fold coverage is required to generate binding landscape maps^12. RNA-seq data were then analyzed by High Throughput Structure-Activity Relationships Through Sequencing (HiT-StARTS)^12 to identify the privileged RNA motifs that bind each small molecule. Briefly, the frequency of occurrence of a selected RNA was compared to the frequency of occurrence of the same RNA from RNA-seq analysis of the starting RNA library to account for biases arising during transcription and RT-PCR. This pooled population comparison affords the parameter Zobs, a metric of statistical confidence. A large, positive Zobs indicates a strong preference for binding the motif while a negative Zobs indicates a strong preference against binding the motif. A Fitness Score is assigned by normalizing the Zobs values to the most statistically significant small molecule-RNA interaction to 100. […] Structure-Activity Relationships (SAR). Next, the most privileged RNA motif binders and the most discriminated against RNA motifs (non-binders) for each compound selection was analyzed by generating LOGOS from the highest and lowest 0.5% of Zobs scores^37. By comparing the LOGOS for related compounds, or DiffLogos, SAR can be defined. Indeed, various hit compounds differ by a single functional group, including compounds A and B (FIG. 5). […] In contrast, the RNA motifs most hindered from binding compounds 1 and 2 (discriminated against) are quite different (FIG. 5B).
Four compounds that share an indolylpyrimidine-2,4-diamine core bound members of A (5-nucleotide hairpin library).
Oligonucleotides. All DNA oligonucleotides were purchased from Integrated DNA Technologies, Inc. (IDT) and used without further purification. RNA oligonucleotide competitors were purchased from Dharmacon and de-protected according to the manufacturer's standard procedure. All oligonucleotide solutions were prepared with NANOpure water. […]

The next test deals with panel of 22 kinases. Nature of the test: In vitro inhibition of a panel of kinases. The class given is biochemical. As to conditions: 20 μM; panel of 22 kinases.
Test [3] addresses HCV RNA motif 5′CUG3′/3′G_C5′ (SL II). Nature of the test: In solution, fluorescence-based binding affinity assay, HCV RNA motifs. Also noted: species or system Hepatitis C virus.
From the text: as §1
(§4) where n1 is the size of Population 1 (number of sequencing reads for a given RNA from RNA-seq analysis of the selected library), n2 is the size of Population 2 (number of sequencing reads for the same RNA from RNA-seq analysis of the starting library), p1 is the observed proportion of Population 1 (the number of reads for a given RNA from selected library/total number of reads), and p2 is the observed proportion for Population 2 (the number of reads for the same RNA in the starting library/total number of reads). Generation of Logos and DiffLogos: Zobs corresponding to the highest (enriched) 0.5% and lowest (discriminated against) 0.5% scores were analyzed to generate consensus sequences, or Logos. The resulting list of sequences were converted to position weight matrix (PWM) lists for each compound. “Enriched” and “discriminated” sequences were kept separate using JMP®, Version <13.2.1>. SAS Institute Inc., Cary, N.C., 1989-2007. The R package Difflogo,^16 which is part of Bioconductor, was utilized to create the sequence logos from PWM lists for each compound and visually compare the differences between them. Binding Affinity Measurements. Dissociation constants were determined using an in solution, fluorescence-based assay. […] Serial dilutions (1:2) of the small molecule were then completed in 1× Assay Buffer supplemented with 1 mM MgCl2. The solutions were incubated for 30 min at room temperature, transferred to a 96-well plate, and fluorescence intensity measured on a BioTek-FLx800 plate reader. The change in fluorescence intensity as a function of small molecule concentration was fit to a one site binding model per equation 3: […]
as §2

The target of test [4] is HCV RNA motif 5′GUG3′/3′C_C5′ (SL I and SL III). The description is as above. Also on record: species or system Hepatitis C virus.
From the text: as §1, §4, §2

Test [5] has as its target HCV RNA motif 5′UAG3′/3′A_C5′ (SL I). Described as above. Also on record: species or system Hepatitis C virus.
From the text: as §1, §4, §2

This note sets out measurements from patent US20220119868A1, “PROFILING RNA-SMALL MOLECULE BINDING SITES WITH OLIGONUCLEOTIDES” (priority 2018, published 2022).

With `C[C@@]1(O)[C@H](O)[C@@H](CO)O[C@H]1n1cnc2c(N)ncnc21` [2′-C-methyladenosine, reference compound], the IC50 (as a rule, the concentration at which inhibition is half-maximal) in test [1] is 4.5 ± 0.1 µM.

Take `CNc1nc(Nc2ccc(C3=NCCN3)cc2)nc(Nc2ccc(C3=NCCN3)cc2)n1` [Compound 2]: the “closing base pair preference (LOGOS)” value with RNA motif libraries A-E is on record as “potential preference for GU closing base pairs”.

Turning to `Cn1ccc2cc(-c3cc(NCc4nc5ccccc5[nH]4)nc(N)n3)ccc21` [Compound 3], in test [2], the “nucleotide preference in position 1 (LOGOS)” value is reported as “strong preference for G” and the “nucleotide preference in position 4 (LOGOS)” value is “G>U>>A or C”.

Consider `COc1cc(Nc2cc(-c3ccc4c(ccn4C)c3)nc(N)n2)cc(OC)c1OC` [Compound 4], for which, in test [2], the “nucleotide preference in position 1 (LOGOS)” value is “strong preference for G” and the “nucleotide preference in position 4 (LOGOS)” value was “G>C>>A or U”.

Consider `Cn1ccc2cc(-c3cc(NCc4cccc(C(F)(F)F)c4)nc(N)n3)ccc21` [Compound 5], for which the “nucleotide preference in position 4 (LOGOS)” value in test [2] was “G>U>>A or C”.

Turning to `Cn1ccc2cc(-c3cc(NCc4cccnc4)nc(N)n3)ccc21` [Compound 6], in test [2], the “nucleotide preference in position 4 (LOGOS)” value is “G≈U>>A or C”.

For the compound `O=C(Nc1cc(C2=NCCN2)cc(C2=NCCN2)c1)c1ccc(C(=O)Nc2cc(C3=NCCN3)cc(C3=NCCN3)c2)cc1` [Compound 9], the IC50 in test [1] is above 100 µM. Moreover, the “kinases inhibited in the panel” value in the test on panel of 22 kinases was “No kinases were significantly inhibited”. Moreover, the Affinity result in test [3] and in test [4] was “N.B” in each case. Also, in test [5], binding was put at a Kd of 1.3 ± 0.5 µM.

Consider `O=C(Nc1cccc(C2=NCCN2)c1)c1ccc(-c2ccc(C(=O)Nc3cccc(C4=NCCN4)c3)cc2)cc1` [Compound 10], for which the half-maximal inhibitory concentration (IC50) in test [1] turned out to be 19 ± 2 µM. The “kinases inhibited in the panel” value with panel of 22 kinases is “No kinases were significantly inhibited”. The Kd (usually the free concentration of one partner at which half of the binding sites on the other are occupied at equilibrium, for simple one-to-one binding) in test [3] was 7.1 ± 4.2 µM; in test [4], 3.35 ± 0.77 µM; in test [5], 0.46 ± 0.14 µM.
